target: T1, ER (Homo sapiens, UniProt P03372); test: ER degradation activity, in-cell western blot analysis in T47D cells; assay type: cell-based; conditions: 16 hours, Table A does not say which cell line (T47D or MCF7), read-out: Potency (DC50)
T1 construct: host or cells: T47D and MCF7 human breast cancer cells
T1 sequence (P03372 1-595): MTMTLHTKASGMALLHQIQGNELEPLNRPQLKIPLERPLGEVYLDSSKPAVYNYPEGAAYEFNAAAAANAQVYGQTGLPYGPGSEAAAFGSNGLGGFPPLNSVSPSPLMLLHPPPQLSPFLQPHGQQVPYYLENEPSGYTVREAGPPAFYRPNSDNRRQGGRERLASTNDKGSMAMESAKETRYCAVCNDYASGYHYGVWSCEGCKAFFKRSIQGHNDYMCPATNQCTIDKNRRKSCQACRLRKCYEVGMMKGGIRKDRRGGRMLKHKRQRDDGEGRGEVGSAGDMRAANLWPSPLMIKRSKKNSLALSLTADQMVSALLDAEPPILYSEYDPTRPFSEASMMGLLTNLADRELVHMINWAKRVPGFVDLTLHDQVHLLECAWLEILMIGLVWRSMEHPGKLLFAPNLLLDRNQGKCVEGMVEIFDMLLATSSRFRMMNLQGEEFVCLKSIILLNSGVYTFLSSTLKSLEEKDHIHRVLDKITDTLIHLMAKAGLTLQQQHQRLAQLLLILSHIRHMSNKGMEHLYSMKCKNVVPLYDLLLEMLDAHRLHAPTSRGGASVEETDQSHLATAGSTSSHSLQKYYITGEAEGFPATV
In short: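 T47D cells grown in DMEM with 10% FBS were treated with compounds for 16 hours at 0.5% DMSO final. ER was detected by in-cell western using 680/800 near-infrared secondary antibodies. Residual ER is given as percent of untreated and DMSO-treated wells set to 100%.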

Compound | DC50 [nM]
C[C@@H]1Cc2cc(O)ccc2[C@@H](c2c(F)cc(N3CCC(N4CCC(C(=O)N5Cc6cc7c(cc6C5)C(=O)N(C5CCC(=O)NC5=O)C7=O)CC4)CC3)cc2F)N1CC(C)(F)F (stereo partly drawn) [E 29, 6-(1′-(4-((1S,3R)-2-(2,2-difluoropropyl)-6-hydroxy-3-methyl-1,2,3,4-tetrahydroisoquinolin-1-yl)-3,5-difluorophenyl)-[1,4′-bipiperidine]-4-carbonyl)-2-(2,6-dioxopiperidin-3-yl)-6,7-dihydropyrrolo[3,4-f]isoindole-1,3(2H,5H)-dione] | > 100
C[C@@H]1Cc2cc(O)ccc2[C@@H](c2c(F)cc(N3CCC(N4CCC(C(=O)N5Cc6cc7c(cc6C5)C(=O)N(C5CCC(=O)NC5=O)C7)CC4)CC3)cc2F)N1CC(C)(F)F (stereo partly drawn) [E 30, 3-(6-(1′-(4-((1S,3R)-2-(2,2-difluoropropyl)-6-hydroxy-3-methyl-1,2,3,4-tetrahydroisoquinolin-1-yl)-3,5-difluorophenyl)-[1,4′-bipiperidine]-4-carbonyl)-1-oxo-3,5,6,7-tetrahydropyrrolo[3,4-f]isoindol-2(1H)-yl)piperidine-2,6-dione] | > 100
C[C@@H]1Cc2cc(O)ccc2[C@@H](c2c(F)cc(N3CCC4(CC3)CN(C(=O)CN3Cc5cc6c(cc5C3)C(=O)N(C3CCC(=O)NC3=O)C6)C4)cc2F)N1CC(F)F (some centres unmarked) [E 35] | < 10
C[C@@H]1Cc2cc(O)ccc2[C@@H](c2c(F)cc(N3CC4(CCN(C(=O)CN5Cc6cc7c(cc6C5)C(=O)N(C5CCC(=O)NC5=O)C7)C4)C3)cc2F)N1CC(F)F (stereo partly drawn) [E 36, 3-(6-(2-(2-(4-((1S,3R)-2-(2,2-difluoroethyl)-6-hydroxy-3-methyl-1,2,3,4-tetrahydroisoquinolin-1-yl)-3,5-difluorophenyl)-2,6-diazaspiro[3.4]octan-6-yl)-2-oxoethyl)-1-oxo-3,5,6,7-tetrahydropyrrolo[3,4-f]isoindol-2(1H)-yl)piperidine-2,6-dione] | < 10
C[C@@H]1Cc2cc(O)ccc2[C@@H](c2c(F)cc(N3CCC4(CN(C(=O)CN5Cc6cc7c(cc6C5)C(=O)N(C5CCC(=O)NC5=O)C7)C4)C3)cc2F)N1CC(F)F (stereo partly drawn) [E 37, 3-(6-(2-(6-(4-((1S,3R)-2-(2,2-difluoroethyl)-6-hydroxy-3-methyl-1,2,3,4-tetrahydroisoquinolin-1-yl)-3,5-difluorophenyl)-2,6-diazaspiro[3.4]octan-2-yl)-2-oxoethyl)-1-oxo-3,5,6,7-tetrahydropyrrolo[3,4-f]isoindol-2(1H)-yl)piperidine-2,6-dione] | < 10
C[C@@H]1Cc2cc(O)ccc2[C@@H](c2c(F)cc(N3CCC4(CN(CC(=O)N5Cc6cc7c(cc6C5)C(=O)N(C5CCC(=O)NC5=O)C7)C4)C3)cc2F)N1CC(F)F (stereo partly drawn) [E 38, 3-(6-(2-(6-(4-((1S,3R)-2-(2,2-difluoroethyl)-6-hydroxy-3-methyl-1,2,3,4-tetrahydroisoquinolin-1-yl)-3,5-difluorophenyl)-2,6-diazaspiro[3.4]octan-2-yl)acetyl)-1-oxo-3,5,6,7-tetrahydropyrrolo[3,4-f]isoindol-2(1H)-yl)piperidine-2,6-dione] | 10 to 100
C[C@@H]1Cc2cc(O)ccc2[C@@H](c2c(F)cc(N3CCC4(CC3)CN(CC(=O)N3Cc5cc6c(cc5C3)C(=O)N(C3CCC(=O)NC3=O)C6)C4)cc2F)N1CC(F)F (some centres unmarked) [E 39] | < 10
C[C@@H]1Cc2cc(O)ccc2[C@@H](c2c(F)cc(N3CC4(CCN(CC(=O)N5Cc6cc7c(cc6C5)C(=O)N(C5CCC(=O)NC5=O)C7)C4)C3)cc2F)N1CC(F)F (stereo partly drawn) [E 40, 3-(6-(2-(2-(4-((1S,3R)-2-(2,2-difluoroethyl)-6-hydroxy-3-methyl-1,2,3,4-tetrahydroisoquinolin-1-yl)-3,5-difluorophenyl)-2,6-diazaspiro[3.4]octan-6-yl)acetyl)-1-oxo-3,5,6,7-tetrahydropyrrolo[3,4-f]isoindol-2(1H)-yl)piperidine-2,6-dione] | < 10

The remaining lines, values ahead:

DC50 [nM] | Compound
> 100 | C[C@@H]1Cc2cc(O)ccc2[C@@H](c2c(F)cc(N3CC4(CCN(C(=O)CN5Cc6cc7c(cc6C5)C(=O)N(C5CCC(=O)NC5=O)C7)CC4)C3)cc2F)N1CC(C)(F)F (stereo partly drawn) [E 27, 3-(6-(2-(2-(4-((1S,3R)-2-(2,2-difluoropropyl)-6-hydroxy-3-methyl-1,2,3,4-tetrahydroisoquinolin-1-yl)-3,5-difluorophenyl)-2,7-diazaspiro[3.5]nonan-7-yl)-2-oxoethyl)-1-oxo-3,5,6,7-tetrahydropyrrolo[3,4-f]isoindol-2(1H)-yl)piperidine-2,6-dione]
> 100 | C[C@@H]1Cc2cc(O)ccc2[C@@H](c2c(F)cc(N3CCC4(CCN(C(=O)CN5Cc6cc7c(cc6C5)C(=O)N(C5CCC(=O)NC5=O)C7)C4)C3)cc2F)N1CC(C)(F)F (stereo partly drawn) [E 28, 3-(6-(2-(7-(4-((1S,3R)-2-(2,2-difluoropropyl)-6-hydroxy-3-methyl-1,2,3,4-tetrahydroisoquinolin-1-yl)-3,5-difluorophenyl)-2,7-diazaspiro[4.4]nonan-2-yl)-2-oxoethyl)-1-oxo-3,5,6,7-tetrahydropyrrolo[3,4-f]isoindol-2(1H)-yl)piperidine-2,6-dione]
> 100 | C[C@@H]1Cc2cc(O)ccc2[C@@H](c2c(F)cc(N3CCC4(CCN(CC(=O)N5Cc6cc7c(cc6C5)C(=O)N(C5CCC(=O)NC5=O)C7=O)C4)C3)cc2F)N1CC(C)(F)F (stereo partly drawn) [E 31, 6-(2-(7-(4-((1S,3R)-2-(2,2-difluoropropyl)-6-hydroxy-3-methyl-1,2,3,4-tetrahydroisoquinolin-1-yl)-3,5-difluorophenyl)-2,7-diazaspiro[4.4]nonan-2-yl)acetyl)-2-(2,6-dioxopiperidin-3-yl)-6,7-dihydropyrrolo[3,4-f]isoindole-1,3(2H,5H)-dione]
> 100 | C[C@@H]1Cc2cc(O)ccc2[C@@H](c2c(F)cc(N3CCC4(CCN(CC(=O)N5Cc6cc7c(cc6C5)C(=O)N(C5CCC(=O)NC5=O)C7)C4)C3)cc2F)N1CC(C)(F)F (stereo partly drawn) [E 32, 3-(6-(2-(7-(4-((1S,3R)-2-(2,2-difluoropropyl)-6-hydroxy-3-methyl-1,2,3,4-tetrahydroisoquinolin-1-yl)-3,5-difluorophenyl)-2,7-diazaspiro[4.4]nonan-2-yl)acetyl)-1-oxo-3,5,6,7-tetrahydropyrrolo[3,4-f]isoindol-2(1H)-yl)piperidine-2,6-dione]
> 100 | C[C@@H]1Cc2cc(O)ccc2[C@@H](c2c(F)cc(N3CCC4(CCN(CC(=O)N5Cc6cc7c(cc6C5)C(=O)N(C5CCC(=O)NC5=O)C7=O)C4)CC3)cc2F)N1CC(C)(F)F (stereo partly drawn) [E 33, 6-(2-(8-(4-((1S,3R)-2-(2,2-difluoropropyl)-6-hydroxy-3-methyl-1,2,3,4-tetrahydroisoquinolin-1-yl)-3,5-difluorophenyl)-2,8-diazaspiro[4.5]decan-2-yl)acetyl)-2-(2,6-dioxopiperidin-3-yl)-6,7-dihydropyrrolo[3,4-f]isoindole-1,3(2H,5H)-dione]
10 to 100 | C[C@@H]1Cc2cc(O)ccc2[C@@H](c2c(F)cc(N3CCC4(CCN(CC(=O)N5Cc6cc7c(cc6C5)C(=O)N(C5CCC(=O)NC5=O)C7)C4)CC3)cc2F)N1CC(C)(F)F (stereo partly drawn) [E 34, 3-(6-(2-(8-(4-((1S,3R)-2-(2,2-difluoropropyl)-6-hydroxy-3-methyl-1,2,3,4-tetrahydroisoquinolin-1-yl)-3,5-difluorophenyl)-2,8-diazaspiro[4.5]decan-2-yl)acetyl)-1-oxo-3,5,6,7-tetrahydropyrrolo[3,4-f]isoindol-2(1H)-yl)piperidine-2,6-dione]

From patent US20240190880A1 (THE REGENTS OF THE UNIVERSITY OF MICHIGAN, priority 2021, published 2024)
